Measurements taken from patent US20200390729A1, “OPHTHALMIC TOPICAL COMPOSITION COMPRISING DOBESILIC ACID FOR TREATING DISEASES OF THE POSTERIOR SEGMENT OF THE EYE” (LABORATORIOS SALVAT, S.A., priority 2017, published 2020).
Read-outs that look alike come from different tables or passages of the source.

Key:
[1] = Ocular distribution of CDO in rats, single dose topical ocular vs. oral; format: in vivo, Sprague Dawley (SD) rat; parameters: key to CDO concentrations Retina / CDO concentrations Optic nerve: —: non-detectable
Description: In Sprague Dawley (SD) rat, weighing approximately 200 g, CDO was administered by topical ocular instillation (10 μl/eye) at 10 mg/ml (composition 2 of Example 1), at 100 mg/ml (composition 5 of Example 1) or by oral gavage at 50 mg/kg, at 200 mg/kg or at 750 mg/kg in aqueous solution (from compositions 1, 3 and 4, respectively, of Example 1). At 15, 60, 180 and 360 minutes post-administration, animals were euthanized and plasma and ocular tissues including sclera, cornea, retina, vitreous humour/lens and optic nerve were collected.
Bioanalysis of CDO was performed depending on the type of matrix. In the case of plasma, proteins were precipitated using methanol. In the case of tissues, samples were grinded in a Mini Bead Beater using zirconium beads and methanol/water (1:1) (v/v) as solvent. After centrifugation, samples were analyzed by UPLC-MS/MS.
Chromatographic separation was carried out using an Acquity CSH Fluoro Phenyl column (1.7 μm, 50×2.1 mm). Mobile phase consisted of a gradient using 0.1% formic acid in water and acetonitrile from 5% to 45% in 4.5 min at a flow rate of 0.6 ml/min.
With regard to the mass spectrometric detection, the electrospray ionization source worked to record negative ions. Multiple Reaction Monitoring (MRM) acquisition mode of the deprotonated molecular ions was performed. The transition monitored for CDO was m/z 189.0→80.1 with a cone voltage of 45 V and collision energy of 25 eV.

[2] = tested on: oxidized glutathione (GSSG); experiment: Antioxidant capacity: GSSG in homogenized retinas, streptozotocin diabetic retinopathy model; format: in vivo, SD male rats; details: diabetic rats, CDO 10 mg/ml topical 10 μl/eye TID 28 days; P<0.01 group II vs. group III
Description: Diabetes was induced in SD male rats by single intraperitoneal injection of streptozotocin (STZ) at 60 mg/kg body weight in citrate buffer (pH 4.5). Seven days after STZ administration, blood glucose was measured and the level of 250 mg/dl was considered the threshold value to consider diabetes induction. Ophthalmic treatment with CDO at 10 mg/ml (topical instillation of 10 μl/eye) was initiated once hyperglycemia was confirmed and continued for 28 days three times a day (TID). Rats were randomly divided in 3 groups: I. Control (non-diabetic), II. Diabetic rats with no treatment and III. Diabetic rats with CDO at 10 mg/ml.
At day 29 CDO was instilled a single time at 10 mg/ml in the group III, rats were euthanized and retinas were collected 15 minutes post-administration.
The antioxidant capacity was evaluated by determining the concentrations of Glutathione disulfide (GSSG) or oxidized glutathione in the homogenized retinas. Tissues were collected at day 29 and homogenized in PBS pH 6-7 containing 1 mM EDTA. After centrifugation at 10000 rpm, an aliquot of the supernatant was diluted in 0.1% formic acid and analyzed by UPLC-MS/MS. […]
With regard to the mass spectrometric detection, the electrospray ionization source worked to record negative ions. […] The transition monitored for GSSG was m/z 611.2→306.2 with a cone voltage of 45 V and collision energy of 25 eV.

[3] = rat, oral 50 mg/Kg = 10 mg, 0.25 h
[4] = rat, oral 50 mg/Kg = 10 mg, 1 h
[5] = rat, topical eye 10 mg/ml (eye drop of 10 μl) = 0.1 mg, 3 h

Question: Which concentration at 1 h ([1]; Sprague Dawley, sclera, rat, topical eye 100 mg/ml (eye drop of 10 μl) = 1 mg, 1 h, read-out: CDO concentrations Sclera) does the source give for `O=S(=O)(O)c1cc(O)ccc1O` [CDO, Calcium dobesilate monohydrate] here?
Answer: 1140 ng/g

Question: And the concentration at 3 h ([1]; Sprague Dawley, sclera, rat, topical eye 100 mg/ml (eye drop of 10 μl) = 1 mg, 3 h, read-out: CDO concentrations Sclera)?
Answer: 220 ng/g

Question: And the concentration at 0.25 h ([1]; Sprague Dawley, vitreous humour/lens, rat, topical eye 10 mg/ml (eye drop of 10 μl) = 0.1 mg, 0.25 h, read-out: CDO concentrations Vitreous humour/lens)?
Answer: 1480 ng/g

Question: And the concentration at 1 h ([1]; Sprague Dawley, vitreous humour/lens, rat, topical eye 10 mg/ml (eye drop of 10 μl) = 0.1 mg, 1 h, read-out: CDO concentrations Vitreous humour/lens)?
Answer: 1680 ng/g

Question: And the concentration at 3 h ([1]; Sprague Dawley, vitreous humour/lens, rat, topical eye 10 mg/ml (eye drop of 10 μl) = 0.1 mg, 3 h, read-out: CDO concentrations Vitreous humour/lens)?
Answer: 190 ng/g

Question: And the concentration at 0.25 h ([1]; Sprague-Dawley, optic nerve, rat, topical eye 10 mg/ml (eye drop of 10 μl) = 0.1 mg, 0.25 h, read-out: CDO concentrations Optic nerve)?
Answer: 5300 ng/g

Question: And the concentration at 1 h ([1]; Sprague-Dawley, optic nerve, rat, topical eye 10 mg/ml (eye drop of 10 μl) = 0.1 mg, 1 h, read-out: CDO concentrations Optic nerve)?
Answer: 850 ng/g

Question: And the concentration at 6 h ([1]; Sprague-Dawley, optic nerve, rat, topical eye 10 mg/ml (eye drop of 10 μl) = 0.1 mg, 6 h, read-out: CDO concentrations Optic nerve)?
Answer: 250 ng/g

Question: And the concentration at 0.25 h ([1]; Sprague-Dawley, optic nerve, rat, topical eye 100 mg/ml (eye drop of 10 μl) = 1 mg, 0.25 h, read-out: CDO concentrations Optic nerve)?
Answer: 13700 ng/g

Question: And the concentration at 1 h ([1]; Sprague-Dawley, optic nerve, rat, topical eye 100 mg/ml (eye drop of 10 μl) = 1 mg, 1 h, read-out: CDO concentrations Optic nerve)?
Answer: 2910 ng/g

Question: And the concentration at 3 h ([1]; Sprague-Dawley, optic nerve, rat, topical eye 100 mg/ml (eye drop of 10 μl) = 1 mg, 3 h, read-out: CDO concentrations Optic nerve)?
Answer: 1920 ng/g

Question: And the concentration at 6 h ([1]; Sprague-Dawley, optic nerve, rat, topical eye 100 mg/ml (eye drop of 10 μl) = 1 mg, 6 h, read-out: CDO concentrations Optic nerve)?
Answer: 2650 ng/g

Question: And the concentration at 0.25 h ([1]; Sprague-Dawley, plasma, rat, topical eye 10 mg/ml (eye drop of 10 μl) = 0.1 mg, 0.25 h, read-out: CDO concentrations Plasma)?
Answer: 10 ng/g

Question: And the concentration at 1 h ([1]; Sprague-Dawley, plasma, rat, topical eye 10 mg/ml (eye drop of 10 μl) = 0.1 mg, 1 h, read-out: CDO concentrations Plasma)?
Answer: 10 ng/g

Question: And the concentration at 3 h ([1]; Sprague-Dawley, plasma, rat, topical eye 10 mg/ml (eye drop of 10 μl) = 0.1 mg, 3 h, read-out: CDO concentrations Plasma)?
Answer: 80 ng/g

Question: And the concentration at 0.25 h ([1]; Sprague-Dawley, plasma, rat, topical eye 100 mg/ml (eye drop of 10 μl) = 1 mg, 0.25 h, read-out: CDO concentrations Plasma)?
Answer: 220 ng/g

Question: And the concentration at 1 h ([1]; Sprague-Dawley, plasma, rat, topical eye 100 mg/ml (eye drop of 10 μl) = 1 mg, 1 h, read-out: CDO concentrations Plasma)?
Answer: 370 ng/g

Question: And the concentration at 3 h ([1]; Sprague-Dawley, plasma, rat, topical eye 100 mg/ml (eye drop of 10 μl) = 1 mg, 3 h, read-out: CDO concentrations Plasma)?
Answer: 280 ng/g

Question: And the concentration at 1 h ([1]; Sprague-Dawley, retina/choroid, rat, topical eye 100 mg/ml (eye drop of 10 μl) = 1 mg, 1 h, read-out: CDO concentrations Retina/Choroid)?
Answer: 1520 ng/g

Question: What about the concentration at 3 h ([1]; Sprague-Dawley, retina/choroid, rat, topical eye 100 mg/ml (eye drop of 10 μl) = 1 mg, 3 h, read-out: CDO concentrations Retina/Choroid) of the same compound?
Answer: 1570 ng/g

Question: And the “CDO amounts in target tissues (optic nerve and retina choroids) 6 hours after topical ocular administration” value ([1]; rat, 6 hours after topical ocular administration)?
Answer: could be detected

Question: What about the “CDO concentrations Optic nerve” value [1, 3] of the same compound?
Answer: —

Question: What about the “CDO concentrations Retina” value [1, 3] of the same compound?
Answer: —

Question: What about the “CDO concentrations Optic nerve” value [1, 4] of the same compound?
Answer: —

Question: And the “CDO concentrations Retina” value [1, 4]?
Answer: —

Question: And the “CDO concentrations Retina” value ([1]; rat, oral 50 mg/Kg = 10 mg, 3 h)?
Answer: —

Question: And the “CDO concentrations Retina” value ([1]; rat, oral 50 mg/Kg = 10 mg, 6 h)?
Answer: —

Question: And the “amount of CDO orally administered showing equivalent levels in retina to 1 mg CDO instilled onto the eye surface” value ([1]; rat, single dose)?
Answer: 40 to 150 mg

Question: What about the “CDO concentrations Retina” value ([1]; rat, topical eye 10 mg/ml (eye drop of 10 μl) = 0.1 mg, 1 h) of the same compound?
Answer: —

Question: And the “CDO concentrations Optic nerve” value [1, 5]?
Answer: —

Question: What about the “CDO concentrations Retina” value [1, 5] of the same compound?
Answer: —

Question: And the “CDO concentrations Retina” value ([1]; rat, topical eye 10 mg/ml (eye drop of 10 μl) = 0.1 mg, 6 h)?
Answer: —

Question: And the “plasmatic levels after topical eye administration” value ([1]; rats, topical eye administration)?
Answer: low plasmatic levels

Question: What about the “retinal concentrations of GSSG” value [2] of the same compound?
Answer: return concentrations of GSSG at the same level as the control group
